Measurements reported in publication PMC4578337, “New depsidones and isoindolinones from the mangrove endophytic fungus Meyerozyma guilliermondii (HZ-Y2) isolated from the South China Sea” (Beilstein Journal of Organic Chemistry, 2015).

Tests used:
[1] = molecular target: T1, α-glucosidase (Saccharomyces cerevisiae, UniProt P53341); assay: α-glucosidase inhibitory activity assay; type: biochemical; settings: qualitative statement
Experimental: (§1) Biological assays. The assays for α-glucosidase and MptpB inhibition inhibitory activities were carried out as described previously.

[2] = molecular target: T1, α-glucosidase; assay: kinetic analysis of the inhibition of α-glucosidase; type: biochemical; settings: Figure 4
Experimental: as §1

T1 sequence (P53341 whole entry): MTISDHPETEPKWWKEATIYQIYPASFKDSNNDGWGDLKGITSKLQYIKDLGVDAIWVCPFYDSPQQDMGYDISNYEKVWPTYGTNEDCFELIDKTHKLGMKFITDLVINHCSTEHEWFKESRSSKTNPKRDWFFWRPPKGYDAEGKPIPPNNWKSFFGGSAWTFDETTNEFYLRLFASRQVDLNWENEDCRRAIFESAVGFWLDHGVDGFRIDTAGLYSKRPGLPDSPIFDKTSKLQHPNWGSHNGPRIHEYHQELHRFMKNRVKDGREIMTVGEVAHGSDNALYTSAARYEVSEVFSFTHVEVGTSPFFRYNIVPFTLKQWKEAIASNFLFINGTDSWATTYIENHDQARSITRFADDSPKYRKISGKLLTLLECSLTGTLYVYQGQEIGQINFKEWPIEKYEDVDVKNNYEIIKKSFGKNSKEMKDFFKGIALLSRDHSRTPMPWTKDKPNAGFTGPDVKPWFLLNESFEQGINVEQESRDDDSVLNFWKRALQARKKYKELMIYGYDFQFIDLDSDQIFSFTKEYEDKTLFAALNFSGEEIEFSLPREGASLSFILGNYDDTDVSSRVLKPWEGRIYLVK

| SMILES | α-glucosidase inhibitory activity (in words) [1] | type of α-glucosidase inhibition (kinetic studies) [2] |
| --- | --- | --- |
| O=C1NC(=O)c2c(O)cc(O)cc21 [Compound 10, 4,6-dihydroxy-1H-isoindole-1,3(2H)-dione] | moderate to weak activities | – |
| Cc1cc(O)cc2c1Oc1c(CO)c(O)cc(C)c1C(=O)O2 [Compound 6, botryorhodine D] | – | noncompetitive inhibitors |
| Cc1cc(O)c(C)c2c1Oc1c(O)c(O)cc(C)c1C(=O)O2 [Compound 2, Botryorhodine F] | – | noncompetitive inhibitors |
| O=C(O)CCCCN1Cc2c(O)cc(O)cc2C1=O [Compound 7, Meyeroguilline A] | promising α-glucosidase inhibitory activity | – |
| O=C1NCc2c(O)cc(O)cc21 [Compound 8, 4,6-dihydroxy-2,3-dihydro-1H-isoindol-1-one] | moderate to weak activities | – |
